Measured values taken from paper PMC4303209, “A novel phosphatidylinositol 3-kinase (PI3K) inhibitor directs a potent FOXO-dependent, p53-independent cell cycle arrest phenotype characterized by the differential induction of a subset of FOXO-regulated genes” (Breast Cancer Research : BCR, 2014).

System: MCF-7 breast cancer cells
Experiment: Microarray gene expression analysis (Agilent whole human genome 4 x 44K; compound vs DMSO, LIMMA log2 fold change)
Type: cell-based
Settings: cell cycle genes

SMILES: Oc1cccc(-c2nc(N3CCOCC3)c3oc4ncccc4c3n2)c1 [PI-103]
- MLF1 log2FC (Gene 4291): 0.58
- MLH1 log2FC (Gene 4292): 0.34
- MAP3K11 log2FC (Gene 4296): -0.58
- MNAT1 log2FC (Gene 4331): 0.59
- MNT log2FC (Gene 4335): 1.54
- MOS log2FC (Gene 4342): -0.08
- MRE11A log2FC (Gene 4361): 0.27
- MSH2 log2FC (Gene 4436): 0.79
- MSH3 log2FC (Gene 4437): 0.54
- MSH4 log2FC (Gene 4438): -0.0458
- MSX1 log2FC (Gene 4487): -0.24
- MSX2 log2FC (Gene 4488): 0.05
- MUC1 log2FC (Gene 4582): -0.28
- TRIM37 log2FC (Gene 4591): 0.67
- MX2 log2FC (Gene 4600): -0.08
- MYB log2FC (Gene 4602): 0.51
- MYBL2 log2FC (Gene 4605): -0.39
- MYC log2FC (Gene 4609): 0.42
- GADD45B log2FC (Gene 4616): 0.86
- MYH9 log2FC (Gene 4627): -0.23
- MYH10 log2FC (Gene 4628): -0.0425
- PPP1R12A log2FC (Gene 4659): 0.42
- PPP1R12B log2FC (Gene 4660): 0.33
- NUBP1 log2FC (Gene 4682): -0.22
- NBN log2FC (Gene 4683): 0.62
- NEDD9 log2FC (Gene 4739): 0.0368
- NEK1 log2FC (Gene 4750): 0.57
- NEK2 log2FC (Gene 4751): 1.00
- NEUROD1 log2FC (Gene 4760): 0.04
- NGFR log2FC (Gene 4804): -0.07
- NOTCH2 log2FC (Gene 4853): 0.27
- NPAT log2FC (Gene 4863): 0.48
- NPM1 log2FC (Gene 4869): 0.28
- NUP88 log2FC (Gene 4927): 0.08
- ODF2 log2FC (Gene 4957): -0.13
- OSM log2FC (Gene 5008): -0.00804
- OVOL1 log2FC (Gene 5017): -0.06
- PAFAH1B1 log2FC (Gene 5048): 0.72
- PAK1 log2FC (Gene 5058): 0.07
- PAK3 log2FC (Gene 5063): 0.09
- PCM1 log2FC (Gene 5108): 0.63
- PCNT log2FC (Gene 5116): 0.45
- PDGFB log2FC (Gene 5155): -0.24
- PDGFRB log2FC (Gene 5159): 0.0243
- PGGT1B log2FC (Gene 5229): -0.28
- ABCB1 log2FC (Gene 5243): -0.02
- PIK3C3 log2FC (Gene 5289): 1.00
- PIM1 log2FC (Gene 5292): 1.29
- PIN1 log2FC (Gene 5300): -0.0472
- PKD1 log2FC (Gene 5310): 0.37
- PKD2 log2FC (Gene 5311): 0.13
- PKHD1 log2FC (Gene 5314): -0.09
- PLAGL1 log2FC (Gene 5325): 0.32
- PML log2FC (Gene 5371): -0.41
- PMS1 log2FC (Gene 5378): 0.55
- PMS2 log2FC (Gene 5395): 0.12
- POLD1 log2FC (Gene 5424): 0.33
- POLE log2FC (Gene 5426): -0.10
- PPAT log2FC (Gene 5471): 0.07
- PPM1A log2FC (Gene 5494): 0.27
- PPP1CB log2FC (Gene 5500): 0.81
- PPP1CC log2FC (Gene 5501): 0.33
- PPP2R1A log2FC (Gene 5518): 0.06
- PPP2R2A log2FC (Gene 5520): -0.06
- PPP2R4 log2FC (Gene 5524): -0.32
- PPP2R5C log2FC (Gene 5527): 0.78
- PPP3CA log2FC (Gene 5530): 0.45
- PPP5C log2FC (Gene 5536): -0.24
- PPP6C log2FC (Gene 5537): -0.35
- PRCC log2FC (Gene 5546): -0.66
- PRIM1 log2FC (Gene 5557): 0.46
- PRKAA1 log2FC (Gene 5562): 0.30
- PRKAA2 log2FC (Gene 5563): 0.07
- PRKAB1 log2FC (Gene 5564): 0.25
- PRKAB2 log2FC (Gene 5565): 0.81
- PRKACA log2FC (Gene 5566): -0.35
- PKIA log2FC (Gene 5569): -0.29
- PRKAG1 log2FC (Gene 5571): 0.09
- PRKAR1A log2FC (Gene 5573): 0.45
- PRKAR2B log2FC (Gene 5577): 0.43
- PRKCA log2FC (Gene 5578): -0.16
- PRKCD log2FC (Gene 5580): 0.12
- PRKCE log2FC (Gene 5581): -0.00329
- PKN2 log2FC (Gene 5586): 0.51
- MAPK1 log2FC (Gene 5594): 0.0165
- MAPK3 log2FC (Gene 5595): -0.12
- MAPK13 log2FC (Gene 5603): -0.17
- MAP2K1 log2FC (Gene 5604): -0.23
- MAP2K6 log2FC (Gene 5608): 0.36
- PROX1 log2FC (Gene 5629): -0.08
- KLK10 log2FC (Gene 5655): -0.42
- PSMA1 log2FC (Gene 5682): -0.03
- PSMA4 log2FC (Gene 5685): 0.47
- PSMA6 log2FC (Gene 5687): 0.07
- PSMB1 log2FC (Gene 5689): 0.00908
- PSMB2 log2FC (Gene 5690): -0.43
- PSMB3 log2FC (Gene 5691): 0.0534
- PSMB5 log2FC (Gene 5693): -0.22
- PSMB6 log2FC (Gene 5694): -0.08
- PSMB8 log2FC (Gene 5696): -0.00568
- PSMC1 log2FC (Gene 5700): -0.00867
- PSMC2 log2FC (Gene 5701): 0.28
- PSMC5 log2FC (Gene 5705): -0.31
- PSMC6 log2FC (Gene 5706): 0.52
- PSMD2 log2FC (Gene 5708): 0.00374
- PSMD3 log2FC (Gene 5709): -0.0745
- PSMD4 log2FC (Gene 5710): -0.0364
- PSMD5 log2FC (Gene 5711): 0.19
- PSMD7 log2FC (Gene 5713): 0.00364
- PSMD9 log2FC (Gene 5715): -0.40
- PSMD12 log2FC (Gene 5718): -0.77
- PSMD13 log2FC (Gene 5719): -0.17
- PSME2 log2FC (Gene 5721): 0.04
- PTEN log2FC (Gene 5728): 0.96
- PTGS2 log2FC (Gene 5743): -0.0533
- PTPN3 log2FC (Gene 5774): -0.31
- PTPN6 log2FC (Gene 5777): 0.26
- PTPRC log2FC (Gene 5788): -0.0261
- PTPRK log2FC (Gene 5796): 0.72
- RAD1 log2FC (Gene 5810): -0.29
- RAD9A log2FC (Gene 5883): 0.68
- RAD17 log2FC (Gene 5884): 1.15
- RAD21 log2FC (Gene 5885): 0.83
- RAD51 log2FC (Gene 5888): -0.29
- RAD52 log2FC (Gene 5893): 0.14
- RAN log2FC (Gene 5901): -0.14
- RANBP1 log2FC (Gene 5902): -0.10
- RANBP2 log2FC (Gene 5903): 0.42
- RARA log2FC (Gene 5914): -0.31
- RASA1 log2FC (Gene 5921): 0.47
- RB1 log2FC (Gene 5925): 0.67
- RBL2 log2FC (Gene 5934): 0.41
- RFC1 log2FC (Gene 5981): 1.04
- RFC2 log2FC (Gene 5982): -0.10
- RFC5 log2FC (Gene 5985): 0.15
- RGS2 log2FC (Gene 5997): -2.43
- RHEB log2FC (Gene 6009): 0.40
- RNF2 log2FC (Gene 6045): -0.11
- RNF4 log2FC (Gene 6047): -0.48
- RPA3 log2FC (Gene 6119): 0.23
- RPS6KA2 log2FC (Gene 6196): 0.19
- RPS6KA3 log2FC (Gene 6197): 0.27
- RPS15A log2FC (Gene 6210): 0.48
- RPS27 log2FC (Gene 6232): 0.35
- RPS27A log2FC (Gene 6233): 0.45
- RRM1 log2FC (Gene 6240): 0.36
- RRM2 log2FC (Gene 6241): -0.81
- SETMAR log2FC (Gene 6419): -0.16
- SIAH2 log2FC (Gene 6478): -0.48
- SKP2 log2FC (Gene 6502): -1.28
- SMARCA4 log2FC (Gene 6597): -0.39
- SOX2 log2FC (Gene 6657): 0.23
- SOX9 log2FC (Gene 6662): -2.01
- SPAST log2FC (Gene 6683): 0.37
- SPTBN1 log2FC (Gene 6711): 0.11
- SRPK2 log2FC (Gene 6733): 0.78
- TRIM21 log2FC (Gene 6737): 0.02
